Several values for one entry are separate records, joined by “and”; a condition that tells them apart may be missing. Equal values may be shown once.
What was measured:
[1] = system: Hamster Melanoma RPM1 1846 tumor cells; assay: hamster cheek pouch (HCP) angiogenesis inhibition, 1846 tumor cell stimulus; assay type: in vivo, Male Syrian Golden hamsters; details: Table 1; 3×10^5 tumor cells; between 0.5 and 4 mg/kg s.c. daily; each number independent result, average of six animals
Procedure: Each compound of the series was also tested for anti-angiogenic activity by an in vivo test that measured vascularization in a hamster's cheek pouch in response to either an angiogenic polypeptide growth factor, epidermal growth factor (EGF) or an induced […].
(§1) In this example, the in vivo angiogenesis inhibition activity of etianic acid esters was tested. Male Syrian Golden hamsters, weighing between 120 g and 150 g were anaesthetized by intraperitoneal (I.P.) injection of a rodent anaesthetic mixture consisting of 50 mg/kg ketamine hydrochloride, 5 mg/kg xylazine and 1 mg/kg acepromazine. The left cheek pouch of each animal was everted with a pincet and pinned down to a plexiglass-rubber stage and observed through a Zeiss stereomicroscope. 10 μg of EGF or 3×10^5 Hamster Melanoma RPM1 1846 tumor cells in 10 μl Cibachrome Blue agarose (Amicon) were injected subcutaneously in the left lower quadrant of the pouch with a Hamilton syringe.
(§2) The pouch was then reinserted and animals were kept under observation until recovered from anaesthesia.
The animals were dosed daily with one test compound, starting one day before stimulus injection and continuing until observation. The test compounds were dissolved in a minimum volume of ethanol and diluted in sterile phosphate buffer solution. […]
(§3) Either five days or twelve days after the EGF or tumor cell injection, animals were anaesthetized by I.P. injection of the rodent anaesthetic mixture. The pouch was everted on the stage and examined under the stereomicroscope. Pictures were taken with a 35 mm using Kodak Tungsten 50 professional films.
(§4) The following subjective scoring was used for evaluating the photographs:
(§5) 1: minimal branching of vessels in the vicinity of injection site.
(§6) 2: new vessels reach injection site, area involved is minimal (<50% of area surrounding injection site).
(§7) 3: many vessels reach and cross injection site, new vessels are tortuous, (>50% of area surrounding injection site).
(§8) 4: "full blown", many tortuous vessels, leakages, hemorrhages, 100% of area around injection site, invasion of new vessels into non-injected areas.
(§9) In the case of the tumor, tumor size was also determined. (See Table 4)
(§10) Results are expressed as the mean of the score. The results are shown in Tables 1 and 2 are percent inhibition of HCP Stimulus.

[2] = system: Hamster Melanoma RPM1 1846 tumor cells; assay: Inhibition of tumor growth (2 week assay); assay type: in vivo, Male Syrian Golden hamsters; details: Table 3, dose 0.8 mg/kg
Procedure: as §1, §2
The animals were dosed daily with one test compound, starting one day before stimulus injection and continuing until observation. The test compounds were dissolved in a minimum volume of ethanol and diluted in sterile phosphate buffer solution. Then between 0.5 and 4 mg/kg of the test compound was injected subcutaneously.
as §3, §4, §5, §6, §7, §8, §9, §10

SMILES	% Inhibition HCP Stimulus 1846 [1]	Angiogenesis % Inh. [2] [%]	Tumor area % (inhibition of tumor growth) [2] [%]	Angiogenesis score ([2]; mean of score 0 (no new vessels) to 4 (full blown), untreated 3.1 [A], 2.9 [B])	Tumor area Mn (mm^2) ([2]; untreated 40.7 ± 16.2 [A], 27.5 ± 15.3 [B])
CCC(=O)O[C@]1(C(=O)OC)[C@H](C)C[C@H]2[C@@H]3CC(F)C4=C(F)C(=O)C=C[C@]4(C)[C@@]3(F)[C@@H](O)C[C@@]21C (stereo partly drawn) [compound 8]	41% and 58% and 75%				
CCC(=O)O[C@]1(C(=O)OC)[C@@H](C)C[C@H]2[C@@H]3CCC4=CC(=O)C=C[C@]4(C)[C@@]3(F)[C@@H](O)C[C@@]21C [compound 1]	40%				
CCC(=O)O[C@]1(C(=O)OC)[C@@H](C)C[C@H]2[C@@H]3CC(F)C4=C(F)C(=O)C=C[C@]4(C)[C@@]3(F)[C@@H](O)C[C@@]21C (stereo partly drawn) [compound 3]	70%				
CCCC(=O)O[C@]1(C(=O)OC)[C@H](C)C[C@H]2[C@@H]3CC(F)C4=CC(=O)C=C[C@]4(C)[C@@]3(F)[C@@H](O)C[C@@]21C (stereo partly drawn) [compound 9]	32%	29	86	2.2	5.7 ± 5.9
CCCC(=O)O[C@]1(C(=O)OC)[C@@H](C)C[C@H]2[C@@H]3CC(F)C4=CC(=O)C=C[C@]4(C)[C@@]3(F)[C@@H](O)C[C@@]21C (stereo partly drawn) [compound 4]	26%				
